Source: publication PMC13002968 (Oncogenesis, 2026)

Biological target: programmed cell death protein 1 (PD-1) (Homo sapiens, UniProt Q15116)
Assay: SPR
Type: binding

programmed cell death protein 1 (PD-1), sequence (Q15116 25-288): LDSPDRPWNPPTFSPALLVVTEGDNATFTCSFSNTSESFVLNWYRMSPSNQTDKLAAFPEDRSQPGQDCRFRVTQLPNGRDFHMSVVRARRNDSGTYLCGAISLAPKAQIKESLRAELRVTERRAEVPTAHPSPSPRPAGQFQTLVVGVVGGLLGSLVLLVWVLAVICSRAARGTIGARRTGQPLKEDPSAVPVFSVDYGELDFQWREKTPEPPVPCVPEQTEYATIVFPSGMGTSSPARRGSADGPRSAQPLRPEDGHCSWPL

## C/C(O)=C(\C#N)C(=O)Nc1ccc(C(F)(F)F)cc1 [TER, teriflunomide]
  Kd: 1.47 nM
